Where two headings read alike, the source gives them in different places.
Tests used:
[1] = test system: thrombin-induced aggregation of washed rabbit platelets; test: Platelet aggregation inhibiting activity (thrombin-induced aggregation of washed rabbit platelets); type: cell-based, rabbit (albino, white local breed); settings: for IC50: Oryctolagus cuniculus, Platelet, Table 2; for platelet aggregation inhibiting activity relative to Dipyridamole (Persantine): times that of Dipyridamole
Experimental: Blood samples were collected from the auricular blood vessel of albino rabbits (white local breed), and washed platelets were prepared therefrom by the method of Baenziger et al. [N. L. Baenziger and P. W. Majerus, Methods in Enzymology, 31, 149 to 155 (1974)]. The platelets were suspended in a 15 mM Tris-hydrochloric acid buffer in a final concentration of 6×10^8 cells/ml (Tris: tris(hydroxymethyl)aminomethane). Each test compound was added thereto and incubation was carried out at 37° C. for 2 minutes. Then, the platelets were stimulated by addition of thrombin (final concentration 0.2 unit/ml; made by Mochida Pharmaceutical Co.) and the aggregation inhibiting activity was estimated by observation of the aggregation reaction using an aggregometer (made by Briston Co.).
The results obtained are shown in Table 2 in terms of IC50 (50% inhibition concentration in M).

aldose reductase = molecular target: T1, aldose reductase (Rattus norvegicus, UniProt P07943); test: Aldose reductase inhibiting activity; type: biochemical, rat (Wistar strain male, eye lens); settings: rat lens crude enzyme; DL-glyceraldehyde 10 mM, NADPH 0.104 mM, pH 6.2; Table 3; read-out: IC50 (50% inhibition concentration), aldose reductase
T1 construct: the supernatant was used as the crude enzyme solution; from tissue; host or cells: eye lens of male Wistar rats, 10,000 g supernatant of the homogenate
Experimental: Thus, Wistar strain male rats were sacrificed by decapitation, the lenses were excised and homogenized with a 0.1M phosphate buffer [pH 6.8; containing 1 mM of mercaptoethanol and 1 mM of nicotinamide-adenine dinucleotide phosphate (NADP)]. The homogenate was then centrifuged at 10,000 g for 15 minutes and the supernatant was used as the crude enzyme solution.
To this buffer solution, there was added 15 μl of each of solutions of each test compound in varied concentrations, followed by addition of 25 μl of the crude enzyme solution prepared in advance, to thereby initiate the reaction.

[2] = Acute toxicity in mice (oral); settings: mouse, in vivo, oral gavage in 10% gum arabic, 2 weeks
[3] = 2 min, washed rabbit platelets 6×10^8 cells/ml, thrombin 0.2 unit/ml, 37° C., 2 minutes incubation, read-out: IC50 (50% inhibition concentration), platelet aggregation
[4] = read-out: concentration that inhibited the thrombin-induced aggregation of washed rabbit platelets by 50%

SMILES	IC50 [1, 3] [µM]	IC50 (aldose reductase) [nM]	platelet aggregation inhibiting activity (in words) [1]	IC50 [1, 4] [µM]	platelet aggregation inhibiting activity relative to Dipyridamole (Persantine) [1]	LD50 at 336 h [2] [mg/kg]
CC=CC=CC=C1SC(=S)N(CC(=O)O)C1=O [Compound No. 11, 3-Carboxymethyl-5-(2,4-hexadienylidene)rhodanine]	20	46	noticeably strong platelet aggregation inhibiting activity	20 to 40	about 10 times	3500 to 5000
CC(C)=CCCC(C)=CC=C1SC(=S)N(CC(=O)O)C1=O [compound 12, 3-Carboxymethyl-5-(3,7-dimethyl-2,6-octadienylidene)rhodanine]	> 300	–	–	–	–	3500 to 5000
CC=CC=C1SC(=S)N(CC(=O)O)C1=O [Compound No. 7, 3-Carboxymethyl-5-(2-butenylidene)rhodanine]	20	70	noticeably strong platelet aggregation inhibiting activity	20 to 40	about 10 times	3500 to 5000
CC(C)=CCCC(C)=CCCC(C)=CCCC(C)=CC=C1SC(=S)N(CC(=O)O)C1=O [Compound No. 13, 3-Carboxymethyl-5-(3,7,11,15-tetramethyl-2,6,10,14-hexadecatetraenylidene)rhodanine]	40	650	noticeably strong platelet aggregation inhibiting activity	20 to 40	about 10 times	3500 to 5000
O=C(O)CN1C(=O)C(=CC=CCCl)SC1=S [Compound No. 8, 3-Carboxymethyl-5-(4-chloro-2-butenylidene)rhodanine]	20	130	noticeably strong platelet aggregation inhibiting activity	20 to 40	about 10 times	–
CCCC=CC=C1SC(=S)N(CC(=O)O)C1=O [Compound No. 10, 3-Carboxymethyl-5-(2-hexenylidene)rhodanine]	30	40	noticeably strong platelet aggregation inhibiting activity	20 to 40	about 10 times	3500 to 5000

More lines, main results first:

IC50 [1, 3] [µM]	IC50 (aldose reductase) [nM]	SMILES	platelet aggregation inhibiting activity (in words) [1]	IC50 [1, 4] [µM]	platelet aggregation inhibiting activity relative to Dipyridamole (Persantine) [1]	LD50 at 336 h [2] [mg/kg]
> 300	200	CCC=C1SC(=S)N(CC(=O)O)C1=O [Compound No. 1, 3-Carboxymethyl-5-propylidenerhodanine]	–	–	–	–
> 300	130	CCCCCC=C1SC(=S)N(CC(=O)O)C1=O [compound 5, 3-Carboxymethyl-5-n-hexylidenerhodanine]	–	–	–	–
30	750	C=CC=C1SC(=S)N(CC(=O)O)C1=O [Compound No. 6, 3-Carboxymethyl-5-allylidenerhodanine]	noticeably strong platelet aggregation inhibiting activity	20 to 40	about 10 times	–
> 300	300	CCCCCCCCCCC=C1SC(=S)N(CC(=O)O)C1=O [compound 4, 3-Carboxymethyl-5-undecylidenerhodanine]	–	–	–	–
> 400	100	CC(C)=CC=C1SC(=S)N(CC(=O)O)C1=O [compound 9, 3-Carboxymethyl-5-(3-methyl-2-butenylidene)rhodanine]	–	–	–	–
> 300	100	CC(C)(C)C=C1SC(=S)N(CC(=O)O)C1=O [compound 3, 3-Carboxymethyl-5-(2,2-dimethylpropylidene)rhodanine]	–	–	–	–
> 300	140	O=C(O)CN1C(=O)C(=CCCCCl)SC1=S [compound 2, 3-Carboxymethyl-5-(4-chlorobutylidene)rhodanine]	–	–	–	–
